Data set [1] concerns HCMV AD169 clone with mutation in UL86 P586T. In words: Susceptibility (IC50) of resistant HCMV AD169 clone P586T. The data set is classed as cell-based, Human cytomegalovirus. The conditions noted are these: Human betaherpesvirus 5, read-out: IC 50, P586T. On the procedure:
(§1) The test compounds are employed as 50 millimolar (mM) solutions in dimethyl sulfoxide (DMSO). Ganciclovir®, Foscarnet® and Cidofovir® are used as reference compounds. After addition of in each case 2 μl of the 50, 5, 0.5 and 0.05 mM DMSO stock solutions to 98 μl portions of cell culture medium in row 2 A-H for duplicate determinations, 1:2 dilutions are carried out with 50 μl portions of medium up to row 11 of the 96-well plate. The wells in rows 1 and 12 each contain 50 μl of medium. 150 μl of a suspension of 1×10^4 cells (human prepuce fibroblasts [NHDF]) are then pipetted into each of the wells (row 1=cell control) and, in rows 2-12, a mixture of HCMV-infected and uninfected NHDF cells (M.O.I.=0.001-0.002), i.e. 1-2 infected cells per 1000 uninfected cells. Row 12 (without substance) serves as virus control. The final test concentrations are 250-0.0005 μM. The plates are incubated at 37° C./5% CO2 for 6 days, i.e. until all the cells are infected in the virus controls (100% cytopathogenic effect [CPE]). The wells are then fixed and stained by adding a mixture of formalin and Giemsa's dye (30 minutes), washed with double-distilled water and dried in a drying oven at 50° C. The plates are then assessed visually using an overhead microscope (plaque multiplier from Technomara).
(§2) For this purpose, NHDF cells are seeded in tissue culture vessels. 5×10^3 cells per well are seeded in 96-well plates and infected with cell-free HCMV AD169 with an moi of 0.03. The infections are cultivated under substance pressure which corresponds to 10 times the IC50 of the substance. Preferably, 30-100 96-well plates inoculated as described are made up. […] Finally, viral stocks are produced as described above and frozen. Serial ten-fold dilution of the virus-infected cells or of the cell culture supernatant of the virus-infected cells is followed by determination of the titer on 24-well plates of confluent NHDF cells after vital staining with neutral red. Finally, the susceptibility to various substances (IC50 determination) is determined as described above.
(§3) The HCMVAD169 mutants selected as described above are grown in vitro on human embryonic prepuce fibroblasts (NHDF cells) under substance pressure (10×IC50 HCMVAD169). After infection of the NHDF cells with a multiplicity of infection (M.O.I) of 0.01, the virus-infected cells are harvested 5-10 days later, and the total DNA is isolated from these cells with the aid of established standard methods (e.g. phenol extraction and ethanol precipitation). Qiagen Sequencing Services (Qiagen, Hilden) determined, after amplification of the viral UL86 gene by PCR, the DNA sequence, which was then transcribed into protein sequence. Compared with the initial strain HCMV AD169, the differences shown in table 2 were detectable in the protein sequence of the major capsid protein (UL86) in the resistant viruses. The IC50 values [μM] of various substances on these mutants compared with the initial strain are likewise indicated. (n.d.=not measured). […] Depending on the nature of the substance, certain mutations lead to various extents of resistance.

Data set [2] concerns HCMV AD169 clone with mutation in UL86 R435C. Description: Susceptibility (IC50) of resistant HCMV AD169 clone R435C. The data set is classed as cell-based, Human cytomegalovirus. As to conditions: Human betaherpesvirus 5, read-out: IC 50, R435C. On the procedure: as §1, §2, §3
A further data set relates to wild-type HCMV AD169. Description: Susceptibility (IC50) of HCMV AD169 wild-type. The data set is classed as cell-based, Human cytomegalovirus. As to conditions: Human betaherpesvirus 5, NHDF cells, read-out: IC 50, Wild-type. On the procedure: as §1, §2, §3
The subject of data set [3] is HCMV AD169 clone with mutation in UL86 V601M. Description: Susceptibility (IC50) of resistant HCMV AD169 clone V601M. The conditions noted are these: Human betaherpesvirus 5, read-out: IC 50, V601M. The data set is classed as cell-based, Human cytomegalovirus. On the procedure: as §1, §2, §3
For data set [4], the system named is HCMV AD169 clone with mutation in UL86 D563N. Description: Susceptibility (IC50) of resistant HCMV AD169 clone D563N. The data set is classed as cell-based, Human cytomegalovirus. As to conditions: Human betaherpesvirus 5, read-out: IC 50, D563N. How it is done: as §1, §2, §3
Data set [5] has as its system HCMV AD169 clone with mutation in UL86 D441N. In words: Susceptibility (IC50) of resistant HCMV AD169 clone D441N. Type of data set: cell-based, Human cytomegalovirus. The conditions noted are these: Human betaherpesvirus 5, read-out: IC 50, D441N. How it is done:
as §1, §2, §3

The subject of data set [6] is HCMV AD169 clone with mutation in UL86 E1320Q. In words: Susceptibility (IC50) of resistant HCMV AD169 clone E1320Q. The conditions noted are these: Human betaherpesvirus 5, read-out: IC 50, E1320Q. The data set is classed as cell-based, Human cytomegalovirus. How it is done:
as §1, §2, §3

Data set [7] has as its system HCMV AD169 clone with mutation in UL86 Q1223R. In words: Susceptibility (IC50) of resistant HCMV AD169 clone Q1223R. Type of data set: cell-based, Human cytomegalovirus. As to conditions: Human betaherpesvirus 5, read-out: IC 50, Q1223R. How it is done: as §1, §2, §3
Data set [8] concerns HCMV AD169 clone with mutation in UL86 A1226T. In words: Susceptibility (IC50) of resistant HCMV AD169 clone A1226T. As to conditions: Human betaherpesvirus 5, read-out: IC 50, A1226T. Type of data set: cell-based, Human cytomegalovirus. How it is done:
as §1, §2, §3

In data set [9] the test system is HCMV AD169 clone with mutation in UL86 A689T. Description: Susceptibility (IC50) of resistant HCMV AD169 clone A689T. The data set is classed as cell-based, Human cytomegalovirus. As to conditions: Human betaherpesvirus 5, read-out: IC 50, A689T. On the procedure:
as §1, §2, §3

The subject of data set [10] is HCMV AD169 clone with mutation in UL86 K1338N. In words: Susceptibility (IC50) of resistant HCMV AD169 clone K1338N. The data set is classed as cell-based, Human cytomegalovirus. As to conditions: Human betaherpesvirus 5, read-out: IC 50, K1338N. How it is done:
as §1, §2, §3

For `CCCCC(=O)Nc1ccc(NC(=O)Nc2ccc(F)c(Cl)c2)cc1` [Example 4, N-[4-({[(3-Chloro-4-fluorophenyl)amino]carbonyl}amino)phenyl]pentanamide], the IC50 in data set [1] is 500 nM; in [2], greater than 60000 nM; in the data set with wild-type HCMV AD169, 80 nM; in data set [3], 500 nM; in [4] it was 1000 nM; in data set [5] it was 500 nM. Besides, the IC50 in [6] is 2000 nM; in [7], 1000 nM; in data set [8], 800 nM; in [9] it was 500 nM; in data set [10], greater than 60000 nM.

In turn, `CC1(C)CC(=O)NN=C1c1cccc(NC(=O)Nc2ccc(F)cc2F)c1` [Example 1, N-(2,4-Difluorophenyl)-N′-[3-(4,4-dimethyl-6-oxo-1,4,5,6-tetrahydro-3-pyridazinyl)phenyl]urea] returned a melting point of 213 °C. In data set [1], the IC50 stood at 4000 nM. In [2], the IC50 turned out to be 1500 nM. Further, the IC50 in the data set on wild-type HCMV AD169 amounted to 1000 nM. The IC50 in data set [3] came to 20000 nM. Besides, the IC50 in data set [4] was greater than 125000 nM. The IC50 in [5] was found to be 20000 nM. The IC50 in data set [6] is greater than 125000 nM. For the same compound, the IC50 in data set [7] stood at 20000 nM. The IC50 in data set [8] is greater than 125000 nM. Further, the IC50 in [9] was found to be 6000 nM. In addition, in data set [10], the IC50 was greater than 125000 nM.

Consider `CC1(C)CC(=O)NN=C1c1cc(NC(=O)Nc2cc(F)ccc2F)ccc1O` [Example 2, N-(2,5-Difluorophenyl)-N′-[3-(4,4-dimethyl-6-oxo-1,4,5,6-tetrahydro-3-pyridazinyl)-4-hydroxyphenyl]urea], for which the IC50 in [1] is 2000 nM; in data set [2], 500 nM; in the data set on wild-type HCMV AD169 it was 400 nM; in data set [3], 3000 nM; in data set [4] it was 6000 nM; in data set [5], 1500 nM. The IC50 in data set [6] was 13000 nM; in [7], 6000 nM; in [8] it was greater than 125000 nM; in data set [9], 1000 nM; in data set [10], greater than 125000 nM.

For the origin of these results see patent publication US20070004735A1, “Method for inhibiting the replication of herpes viruses” (priority 2003, published 2007).
